Laboratory results reported in US11834458B2, “Anti-cancer nuclear hormone receptor-targeting compounds” (Nuvation Bio Inc., priority 2021, dated 2023).
pIC50: −log10 of the molar value. Where two headings read alike, the source gives them in different places.

How the values were obtained:
AR = AR (Homo sapiens (Human), UniProt P10275, T878A); assay: AR binding assay
Method: AR binding assay: To assess AR binding, test compound (top dose 10 μM, 4 fold serial dilution, 8 point dose response) and control (progesterone) were transferred to the assay plate. Cytosol from LnCaP cells was added to the plate, followed by addition of radiolabeled ^3H-R1881 at a final concentration of 1 nM. The plate was sealed, and the reaction was incubated at 300 rpm at 4° C. for 24 hrs. Radioligand absorption buffer (10 mM Tris-HCl, pH 7.4; 1.5 mM EDTA; 1 mM DTT; 0.25% charcoal; 0.0025% dextran) was then added to the plate, mixed, and incubated at 4° C. for 15 minutes. The plate was then centrifuged at 3000 rpm for 30 minutes at 4° C. The supernatant was transferred to the scint-tube and Tri-carb was used for scintillation counting. The data was analyzed using GraphPadPrism v5.0 and binding IC50 was determined as the concentration where 50% inhibition of radioligand binding was observed.

[1] = target: full-length androgen receptor (Homo sapiens (Human), UniProt P10275); assay: AR antagonism assay; format: cell-based; settings: HEK293 cells stably expressing full-length androgen receptor, testosterone 1 nM, 20 h; read-out: AR antagonism
Method: AR antagonism assay: To evaluate AR antagonist activity, test compound was added to the assay plate (top dose 10 μM, 3 fold serial dilution, 10 point dose response). HEK293 cells stably expressing the full-length androgen receptor were seeded at a density of 20,000 cells/well in the assay plate. The assay plate was then incubated at room temperature for 10 minutes and at 37° C., 5% CO2 for 20 minutes. Testosterone was added to the assay plate at 1 nM final concentration and the assay plate incubated at 37° C., 5% CO2 for 20 h. After the incubation period, Steady-glo was added to the assay plate and mixed at room temperature for 20 minutes on an orbital shaker, before reading out on the EnVision plate reader.

IEC6 cells = assay: Cell viability assay, IEC6; format: cell-based; settings: Rattus norvegicus, IEC-6, 144 h, read-out: IEC-6 (IC50, nM)
How it was run: (§1)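 Cells seeded overnight at 37 °C, 5% CO2, with a T0 plate read at compound addition; compounds added in DMSO (final 0.1-0.2%) for 6 days. CellTiterGlo luminescence; inhibition calculated relative to day-0 and vehicle signals, giving GI50/IC50 values.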

[2] = target: ligand binding domain of the glucocorticoid receptor (Homo sapiens (Human), UniProt P04150); assay: GR antagonism assay; format: cell-based; settings: HEK293 cells stably expressing GR ligand binding domain, dexamethasone 1.5 nM, 20 h
Method: GR antagonism assay: To evaluate GR antagonist activity, test compound was added to the assay plate (top dose 5 μM, 4 fold serial dilution, 8 point dose response). HEK293 cells stably expressing the ligand binding domain of the glucocorticoid receptor were seeded at a density of 40,000 cells/well in the assay plate. The assay plate was then incubated at 37° C., 5% CO2 for 30 minutes. Dexamethasone was added to the assay plate at 1.5 nM final concentration and the assay plate was incubated at 37° C., 5% CO2 for 20 h. After the incubation period, Dual-glo luciferase reagent was added to the assay plate and mixed at room temperature for 20 minutes on an orbital shaker, before reading out on the EnVision plate reader.

LNCap cells = assay: Cell viability assay, LNCap; format: cell-based; settings: Homo sapiens, LNCaP, 144 h, read-out: LNCap (GI50, nM)
How it was run: as §1

GR = GR (Homo sapiens (Human), UniProt P04150); assay: GR binding assay; settings: cytosol from IM-9 cells, 3H-Dexamethasone 1.5 nM, 4° C. 24 hrs
Method: GR binding assay: To assess GR binding, test compound (top dose 1 μM, 4 fold serial dilution, 8 point dose response) and control (dexamethasone) were transferred to the assay plate. Cytosol from IM-9 cells was added to the plate, followed by addition of radiolabeled ^3H-Dexamethasone at a final concentration of 1.5 nM. The plate was sealed, and the reaction was incubated at 300 rpm at 4° C. for 24 hrs. Radioligand absorption buffer (10 mM Tris-HCl, pH 7.4; 1.5 mM EDTA; 1 mM DTT; 0.25% charcoal; 0.0025% dextran) was then added to the plate, mixed, and incubated at 4° C. for 15 minutes. The plate was then centrifuged at […] for 30 minutes at 4° C. The supernatant was transferred to the scint-tube and Tri-carb was used for scintillation counting. The data was analyzed using GraphPadPrism v5.0 and binding IC50 was determined as the concentration where 50% inhibition of radioligand binding was observed.

T47D cells = assay: Cell viability assay, T47D; format: cell-based; settings: Homo sapiens, T47D, 144 h, read-out: T47D (GI50, nM)
How it was run: as §1

[3] = target: Progesterone Receptor (PR)-LBD (Homo sapiens (Human), UniProt P06401); assay: PR coactivator antagonist assay; format: biochemical; settings: 2.5 nM PR-LBD and coactivator peptide, 10 nM progesterone-induced fluorescence response; read-out: PR antagonism
Method: PR coactivator antagonist assay: Test compound (Top dose 10 μM, 4 fold serial dilution, 8 point dose response) and/or vehicle was incubated with the 2.5 nM Progesterone Receptor (PR)-LBD and coactivator peptide for 30 minutes at RT. Determination of the amount of complex formed was read spectrofluorimetrically (excitation: 337 nm, emission: 520/490 nm). Test compound-induced inhibition of 10 nM progesterone-induced fluorescence response by 50 percent or more (≥50%) indicates receptor antagonist activity.

[4] = target: Progesterone PR-B receptors (Homo sapiens (Human), UniProt P06401); assay: PR binding assay; settings: human breast carcinoma T47D cells, 0.5 nM [3H]Progesterone, 20 hours at 4° C.
Method: PR binding assay: Progesterone PR-B receptors from human breast carcinoma T47D cells were used in modified Na2HPO4/NaH2PO4 buffer pH 7.4. Compounds were screened at a range of doses (Top dose 40 nM, 4 fold serial dilution, 8 point dose response) and dispensed into the assay plate. Supernatant of 1.2×10^5 cells aliquot were added to the assay plate and incubated with 0.5 nM [^3H]Progesterone for 20 hours at 4° C. Membranes were filtered and washed, the filters were then counted to determine [^3H]Progesterone specifically bound. Binding IC50 was determined as the concentration where 50% inhibition of radioligand binding was observed.

Chain of ligand binding domain of the glucocorticoid receptor (P04150 524-758): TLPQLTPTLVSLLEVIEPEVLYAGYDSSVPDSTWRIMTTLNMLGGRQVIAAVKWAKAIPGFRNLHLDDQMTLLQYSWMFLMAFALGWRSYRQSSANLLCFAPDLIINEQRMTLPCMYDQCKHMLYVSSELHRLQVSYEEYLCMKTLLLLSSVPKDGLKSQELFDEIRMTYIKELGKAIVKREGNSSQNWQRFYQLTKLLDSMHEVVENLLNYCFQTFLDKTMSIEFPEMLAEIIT
Chain of GR (P04150 whole entry): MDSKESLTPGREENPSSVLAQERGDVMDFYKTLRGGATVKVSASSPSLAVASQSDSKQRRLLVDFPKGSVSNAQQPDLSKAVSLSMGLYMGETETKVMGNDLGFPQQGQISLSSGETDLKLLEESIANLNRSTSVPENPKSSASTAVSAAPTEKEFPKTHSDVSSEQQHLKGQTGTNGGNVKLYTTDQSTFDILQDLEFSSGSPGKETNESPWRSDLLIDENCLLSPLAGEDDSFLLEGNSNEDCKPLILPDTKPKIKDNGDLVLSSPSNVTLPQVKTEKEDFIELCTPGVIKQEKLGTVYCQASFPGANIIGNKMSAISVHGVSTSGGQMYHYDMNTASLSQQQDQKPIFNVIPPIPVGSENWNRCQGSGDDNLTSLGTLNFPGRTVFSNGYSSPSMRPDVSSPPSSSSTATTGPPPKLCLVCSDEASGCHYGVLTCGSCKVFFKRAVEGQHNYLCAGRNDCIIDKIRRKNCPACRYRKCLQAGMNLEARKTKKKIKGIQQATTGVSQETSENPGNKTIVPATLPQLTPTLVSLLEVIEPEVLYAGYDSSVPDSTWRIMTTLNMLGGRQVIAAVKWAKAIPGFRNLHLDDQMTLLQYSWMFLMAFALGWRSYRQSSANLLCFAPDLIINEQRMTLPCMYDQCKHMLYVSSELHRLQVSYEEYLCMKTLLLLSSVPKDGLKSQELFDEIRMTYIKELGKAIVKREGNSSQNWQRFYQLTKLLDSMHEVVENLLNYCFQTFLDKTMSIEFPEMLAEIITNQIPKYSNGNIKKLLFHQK
Chain of full-length androgen receptor (P10275 whole entry): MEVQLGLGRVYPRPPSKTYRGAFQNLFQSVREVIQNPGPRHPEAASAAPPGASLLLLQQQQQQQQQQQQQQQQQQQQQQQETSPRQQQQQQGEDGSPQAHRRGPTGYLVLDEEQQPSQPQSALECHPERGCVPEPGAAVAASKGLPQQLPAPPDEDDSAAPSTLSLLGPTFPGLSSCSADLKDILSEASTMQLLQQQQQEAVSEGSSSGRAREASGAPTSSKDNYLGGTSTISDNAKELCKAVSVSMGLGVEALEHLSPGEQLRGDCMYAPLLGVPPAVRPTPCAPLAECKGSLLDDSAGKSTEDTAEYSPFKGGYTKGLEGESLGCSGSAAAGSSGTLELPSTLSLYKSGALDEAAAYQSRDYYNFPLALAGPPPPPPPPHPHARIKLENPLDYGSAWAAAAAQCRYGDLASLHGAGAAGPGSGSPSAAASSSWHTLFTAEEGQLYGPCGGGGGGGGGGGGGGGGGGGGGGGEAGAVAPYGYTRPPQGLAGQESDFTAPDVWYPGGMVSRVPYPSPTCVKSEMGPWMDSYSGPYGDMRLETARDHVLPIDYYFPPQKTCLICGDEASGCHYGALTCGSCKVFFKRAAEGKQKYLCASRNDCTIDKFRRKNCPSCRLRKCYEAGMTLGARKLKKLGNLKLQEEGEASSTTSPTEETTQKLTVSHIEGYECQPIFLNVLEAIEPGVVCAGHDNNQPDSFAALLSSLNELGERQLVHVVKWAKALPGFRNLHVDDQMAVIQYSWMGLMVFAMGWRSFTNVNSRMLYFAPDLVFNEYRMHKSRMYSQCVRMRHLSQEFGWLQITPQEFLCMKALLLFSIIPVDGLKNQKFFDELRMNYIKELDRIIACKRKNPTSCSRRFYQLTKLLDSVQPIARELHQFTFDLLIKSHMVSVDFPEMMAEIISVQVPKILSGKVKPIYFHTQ
Chain of AR (P10275 whole entry T878A): as the sequence (P10275 whole entry) above, with T878A counted along it
Chain of Progesterone Receptor (PR)-LBD (P06401 679-913, species assumed): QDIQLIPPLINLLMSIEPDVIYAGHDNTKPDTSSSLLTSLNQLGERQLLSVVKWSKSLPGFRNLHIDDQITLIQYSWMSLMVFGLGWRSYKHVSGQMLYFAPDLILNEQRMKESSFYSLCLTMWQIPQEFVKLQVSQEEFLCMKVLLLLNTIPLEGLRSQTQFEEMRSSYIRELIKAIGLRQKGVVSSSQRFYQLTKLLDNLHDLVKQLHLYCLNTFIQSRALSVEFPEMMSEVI
Chain of Progesterone PR-B receptors (P06401 whole entry): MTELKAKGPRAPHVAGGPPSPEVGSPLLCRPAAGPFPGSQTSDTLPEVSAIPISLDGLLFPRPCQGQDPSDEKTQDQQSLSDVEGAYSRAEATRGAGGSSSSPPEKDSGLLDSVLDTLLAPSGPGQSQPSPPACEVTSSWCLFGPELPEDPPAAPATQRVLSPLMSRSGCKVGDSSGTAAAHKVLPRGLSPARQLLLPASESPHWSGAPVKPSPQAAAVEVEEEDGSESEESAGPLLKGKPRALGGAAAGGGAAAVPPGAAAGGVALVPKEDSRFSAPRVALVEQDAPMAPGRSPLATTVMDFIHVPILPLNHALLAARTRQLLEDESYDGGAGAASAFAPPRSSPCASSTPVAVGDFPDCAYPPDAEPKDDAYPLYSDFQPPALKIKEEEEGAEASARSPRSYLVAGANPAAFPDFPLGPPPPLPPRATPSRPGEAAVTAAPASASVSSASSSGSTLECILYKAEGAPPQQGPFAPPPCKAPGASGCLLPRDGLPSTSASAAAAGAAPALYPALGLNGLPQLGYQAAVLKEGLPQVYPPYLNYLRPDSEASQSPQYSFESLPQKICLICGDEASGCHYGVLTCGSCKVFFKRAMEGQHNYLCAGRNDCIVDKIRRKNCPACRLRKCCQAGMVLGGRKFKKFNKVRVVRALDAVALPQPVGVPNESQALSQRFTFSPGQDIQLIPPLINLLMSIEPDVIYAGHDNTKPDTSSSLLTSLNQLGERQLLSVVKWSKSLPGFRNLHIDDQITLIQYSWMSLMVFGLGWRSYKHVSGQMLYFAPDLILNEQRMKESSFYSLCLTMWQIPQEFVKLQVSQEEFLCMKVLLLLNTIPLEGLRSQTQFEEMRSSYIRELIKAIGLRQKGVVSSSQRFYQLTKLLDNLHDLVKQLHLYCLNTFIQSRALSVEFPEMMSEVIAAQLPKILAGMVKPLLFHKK

Structure (SMILES) | pIC50 (AR; cytosol from LnCaP cells, 3H-R1881 1 nM, 4° C. 24 hrs, read-out: AR binding) | pIC50 [1] | IC50 (IEC6 cells) | pIC50 [2] | GI50 (LNCap cells) | pIC50 (GR) | GI50 (T47D cells) | pIC50 [3] | pIC50 [4] | pIC50 (AR)
CCc1c2c(nc3ccc(OC(=O)N4CCN(C(=O)CCCCCN(C)c5ccc([C@H]6C[C@@]7(C)[C@@H](CC[C@]7(OC(C)=O)C(C)=O)[C@@H]7CCC8=CC(=O)CCC8=C76)cc5)CC4)cc13)-c1cc3c(c(=O)n1C2)COC(=O)[C@]3(O)CC [Compound 3, (S)-4,11-diethyl-4-hydroxy-3,14-dioxo-3,4,12,14-tetrahydro-1H-pyrano[3′,4′:6,7]indolizino[1,2-b]quinolin-9-yl 4-(6-((4-((8S,11R,13S,14S,17R)-17-acetoxy-17-acetyl-13-methyl-3-oxo-2,3,6,7,8,11,12,13,14,15,16,17-dodecahydro-1H-cyclopenta[a]phenanthren-11-yl)phenyl)(methyl)amino)hexanoyl)piperazine-1-carboxylate] | > 8.00 | 6.30 to 8.00 | 501 to 1000 nM | 6.30 to 8.00 | 10 to 500 nM | > 8.00 | 10 to 500 nM | > 8.00 | > 8.00 | –
CC[C@@]1(O)C(=O)OCc2c1cc1n(c2=O)Cc2cc3c(CN(C)C)c(OC(=O)N4CCN(CCCCCCN(C)c5ccc([C@H]6C[C@@]7(C)[C@@H](CC[C@]7(OC(C)=O)C(C)=O)[C@@H]7CCC8=CC(=O)CCC8=C76)cc5)CC4)ccc3nc2-1 [Compound 5, (S)-10-((dimethylamino)methyl)-4-ethyl-4-hydroxy-3,14-dioxo-3,4,12,14-tetrahydro-1H-pyrano[3′,4′:6,7]indolizino[1,2-b]quinolin-9-yl 4-(6-((4-((8S,11R,13S,14S,17R)-17-acetoxy-17-acetyl-13-methyl-3-oxo-2,3,6,7,8,11,12,13,14,15,16,17-dodecahydro-1H-cyclopenta[a]phenanthren-11-yl)phenyl)(methyl)amino)hexyl)piperazine-1-carboxylate] | – | < 6.00 | 501 to 1000 nM | 6.30 to 8.00 | 10 to 500 nM | > 8.00 | 10 to 500 nM | > 8.00 | > 8.00 | 6.30 to 8.00
